This note sets out measurements from US6476243B1, “Perfluorinated esters of alkanoyl L-carnitine for the preparation of cationic lipids for the intracellular delivery of pharmacologically active compounds” (Sigma-Tau Industrie Farmaceutiche Riunite S.p.A., priority 1998, dated 2002).

Holding throughout (assay type): cell-based, human
Details in all cases: for β-Gal: liposome-DNA complex, with serum

For one test, the system named is HeLa cells. The experiment in a line: pCMV-β-Gal plasmid DNA transfection mediated by ST1223 cationic liposomes, β-galactosidase by ELISA, HeLa cells. On the procedure: (§1) Liposomes were prepared starting with 200 mg of ST1223, synthesised according to the procedure described in EXAMPLE 1 and solubilised in 50 mL of chloroform (solubilisation phase). The solvent was then eliminated under vacuum for one night (t 30-40° C.; 400-700 mm Hg). The sample was hydrated with deionised water to a final concentration of 5 mM (hydration phase). The liposomes were then subjected to sonication for 1 h at 10-second intervals using a sonication bath. The liposomes thus prepared produced unilaminar vesicles.
(§2) The liposome-DNA complex was prepared by mixing the two solutions A and B described here below:
(§3) Solution A: 2.5 μg of plasmid DNA (pCMV/β- Gal, 7200 base pairs, used for the expression of the enzyme β-galactosidase) were diluted sterilely in 50 μl of HBS (HEPES 20 mM; NaCl 150 mM, pH 7.4)
(§4) Solution B: the liposome, prepared according to EXAMPLE 7, was diluted in distilled H2O to a concentration of 1.29 mM and 15 μL of this solution were diluted in 50 µL of distilled H2O).
(§5) The two solutions were mixed by stirring gently and incubated for 10-30 min at room temperature.
(§6) pCMV-β-Gal DNA transfection mediated by cationic liposomes in the various cell lines HeLa, MCF-7, Caco2, and T98-G was performed at different cell densities: 100,000 cells/dish 200.000 cells/dish and 300.000 cells/dish.
(§7) HeLa, MCF-7, Caco2 and T98-G cells were grown for 48 h (37° C., 5% CO2) in the following growth media:
HeLa cells RPMI-1640 (HyQ catalogue), 10% fetal calf serum, 1% L-glutamine, 1% streptomycin, 1% penicillin
(§8) Cells were plated at different densities (100.000 cells/dish, 200.000 cells/dish, 300.000 cells/dish) in Petri dishes (Corning or Falcon) measuring approximately 3 cm in diameter and incubated in 2 mL of medium for 18 h before being treated.
(§9) After replacing the medium with 2 mL of fresh medium, […] of the liposome-DNA complex, prepared as described in EXAMPLE 8, were added to each dish; after gentle stirring, the dishes were placed in a thermostat for 5 h (37° C., 5% CO2). Later, the cells were washed three times with 5 mL PBS buffer (Gibco catalogue) per dish and incubated for 16 h (37° C., 5% CO2).
(§10) After washing the cells three times with 5 mL PBS buffer (Gibco catalogue) per dish, total proteins were extracted and 50 μg of these were loaded per well in order to determine β-galactosidase production by immunoassay (β-Gal ELISA Kit, Boehringer).
On the technique in general: In an ELISA, binding on a coated surface is turned into a signal by an enzyme label.

For the next test, the system named is MCF-7 cells. The test can be described thus: pCMV-β-Gal plasmid DNA transfection mediated by ST1223 cationic liposomes, β-galactosidase by ELISA, MCF-7 cells. On the procedure:
as §1, §2, §3, §4, §5, §6, §7
MCF-7 cells DMEM (Dulbecco Modified Eagle Medium, SIGMA catalogue), 10% fetal calf serum, 1% L-glutamine, 1% streptomycin, 1% penicillin
as §8, §9, §10

Another test concerns T98-G cells. The test can be described thus: pCMV-β-Gal plasmid DNA transfection mediated by ST1223 cationic liposomes, β-galactosidase by ELISA, T98-G cells. On the procedure:
as §1, §2, §3, §4, §5, §6, §7
T98-G cells EMEM (Essential Minimum Eagle Medium, SIGMA catalogue), 10% fetal calf serum, 1% L-glutamine, 1% streptomycin, 1% penicillin.
as §8, §9, §10

A further test relates to Caco2 cells. The test can be described thus: pCMV-β-Gal plasmid DNA transfection mediated by ST1223 cationic liposomes, β-galactosidase by ELISA, Caco2 cells. On the procedure:
as §1, §2, §3, §4, §5, §6, §7
Caco2 cells EMEM (Essential Minimum Eagle Medium, SIGMA catalogue), 15% fetal calf serum, 1% L-glutamine, 1% streptomycin, 1%, penicillin
as §8, §9, §10

The structures appear in SMILES notation.

For the molecule `CCCCCCCCCCC(=O)O[C@H](CC(=O)OCCC(F)(F)C(F)(F)C(F)(F)C(F)(F)C(F)(F)C(F)(F)C(F)(F)C(F)(F)F)C[N+](C)(C)C.[Cl-]` [ST1223, undecanoyl-L-carnitine chloride 1,1H-2,2H-hepatdecafluorodecyl ester], the “cell density of greatest transfection efficiency” value turned out to be 200.000 cells/dish with HeLa cells, 200.000 cells/dish with MCF-7 cells, 300.000 cells/dish in the test on T98-G cells and 100.000 cells/dish in the test on Caco2 cells. Besides, the β-Gal with HeLa cells (density 100.000 cells/dish) is on record as 87 pg/dish; in the test with HeLa cells (density 200.000 cells/dish), 303 pg/dish; in the test on HeLa cells (density 300.000 cells/dish) it was 83 pg/dish; with MCF-7 cells (density 100.000 cells/dish), 234 pg/dish; with MCF-7 cells (density 200.000 cells/dish), 422 pg/dish; in the test with MCF-7 cells (density 300.000 cells/dish) it was 409 pg/dish. Besides, the β-Gal in the test on T98-G cells (density 100.000 cells/dish) is on record as 126 pg/dish; in the test with T98-G cells (density 200.000 cells/dish) it was 330 pg/dish; in the test on T98-G cells (density 300.000 cells/dish) it was 491 pg/dish; in the test with Caco2 cells (density 100.000 cells/dish) it was 422 pg/dish; with Caco2 cells (density 200.000 cells/dish) it was 395 pg/dish; with Caco2 cells (density 300.000 cells/dish), 385 pg/dish.
